This is an account of results in US11976083B2, “Inhibitors of peptidylarginine deiminases” (Gilead Sciences, Inc., priority 2020, dated 2024).

The target of this test is T1, human PAD4 (Homo sapiens, UniProt Q9UM07).
T1 construct: human PAD4 (NM_012387), A2-P663, was PCR amplified; His-SUMO (N, cleaved yes); made in house; host or cells: E. coli BL21(DE3)
Nature of the test: In vitro PAD4 BAEE biochemical assay. The note with it: BAEE substrate 3 mM, 5 nM PAD4, 2 mM calcium chloride; geometric mean of multiple experiments. In short, it runs like this: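 Ammonia produced by BAEE deimination (3 mM substrate, 2 h, 25 °C) was read as fluorescent isoindole after o-phthalaldehyde/DTT derivatization, ex 405 nm/em 535 nm. Human PAD4 at 5 nM final, 2 mM calcium, pH 7.6 MOPS; compound preincubated 30 min. IC50s, normalized to BB-Cl-Amidine and DMSO controls, were geometric-mean averaged.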

T1 sequence (Q9UM07 2-663): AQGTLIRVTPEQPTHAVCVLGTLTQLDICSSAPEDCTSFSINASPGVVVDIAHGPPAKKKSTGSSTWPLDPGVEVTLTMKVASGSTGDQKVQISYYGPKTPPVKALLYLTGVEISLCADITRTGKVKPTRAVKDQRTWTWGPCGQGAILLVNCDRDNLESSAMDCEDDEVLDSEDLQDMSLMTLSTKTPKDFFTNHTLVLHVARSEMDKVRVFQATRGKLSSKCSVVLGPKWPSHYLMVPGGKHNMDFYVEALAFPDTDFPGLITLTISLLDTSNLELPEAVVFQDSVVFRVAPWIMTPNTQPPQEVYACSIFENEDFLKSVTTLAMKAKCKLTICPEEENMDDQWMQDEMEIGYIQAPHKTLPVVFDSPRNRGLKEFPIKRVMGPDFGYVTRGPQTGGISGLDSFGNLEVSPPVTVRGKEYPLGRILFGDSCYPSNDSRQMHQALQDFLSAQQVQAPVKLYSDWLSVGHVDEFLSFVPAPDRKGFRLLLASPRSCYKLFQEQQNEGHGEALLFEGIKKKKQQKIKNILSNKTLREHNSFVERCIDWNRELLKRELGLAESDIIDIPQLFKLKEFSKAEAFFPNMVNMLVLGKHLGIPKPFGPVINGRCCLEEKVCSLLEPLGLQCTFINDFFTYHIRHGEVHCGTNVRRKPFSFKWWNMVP

Take `C[C@H]1NC(=O)c2cc3ccccc3nc2CCCCCn2c(-c3nc4cc(C(=O)N5C[C@H](N)[C@@H]6CC[C@H]5C6)c(F)c(F)c4n3C3CC3)cc3ccc1nc32` [Example 754, (2~{R})-21-[5-[(1~{S},4~ {R},5~{R})-4-amino-2-azabicyclo[3.2.1]octane-2-carbonyl]-1-cyclopropyl-6,7-difluoro-benzimidazol-2-yl]-2-methyl-3,13,20,26-tetrazapentacyclo[18.5.2.0^ {5,14}.0^{7,12}.0^{23,27}] heptacosa-1(26),5(14),6,8, 10,12,21,23(27),24-nonaen-4-one]: the IC50 was 59 nM.
Then `COc1cc(C(=O)N2C[C@H](N)[C@@H]3CC[C@H]2C3)cc2nc(-c3cc4ccc5nc4n3CC(F)(F)CCCC[C@](C)(C(F)(F)F)C(=O)N[C@@H]5C)n(C)c12` [Example 459, (8~{S},11~{R})-17-[5-[(1~{S},4~{R},5~{R})-4-amino-2-azabicyclo[3.2.1]octane-2-carbonyl]-7-methoxy-1-methyl-benzimidazol-2-yl]-3,3-difluoro-8,11-dimethyl-8-(trifluoromethyl)-1,10,19-triazatricyclo[10.5.2.0^{15,18}]nonadeca-12(19),13,15(18),16-tetraen-9-one], with 130 nM; and `COc1cc(C(=O)N[C@H]2CNC[C@@H](O)C2)cc2nc(-c3cc4ccc5nc4n3CCCCCCC(C)(C)C(=O)N[C@@H]5C)n(C)c12` [Example 59, ~{N}-[(3~{R},5~{S})-5-hydroxy-3-piperidyl]-7-methoxy-1-methyl-2-[(11~{R})-8,8,11-trimethyl-9-oxo-1,10,19-triazatricyclo[10.5.2.0^{15,18}]nonadeca-12(19),13,15(18),16-tetraen-17-yl]benzimidazole-5-carboxamide], with 161 nM.
Then `C[C@H]1NC(=O)[C@@H]2C[C@H]2CCCCCn2c(-c3nc4cc(C(=O)N5C[C@H](N)[C@@H]6CC[C@H]5C6)cnc4n3C3CC3)cc3ccc1nc32` [Example 458, (2~{R},5~{R},7~{R})-14-[6-[(1~{S),4~{R},5~{R})-4-amino-2-azabicyclo[3.2.1]octane-2-carbonyl]-3-cyclopropyl-imidazo[4,5-b]pyridin-2-yl]-2-methyl-3,13,19-triazatetracyclo[11.5.2.0^{5,7}.0^{16,20}] icosa-1(19),14,16(20),17-tetraen-4-one], with 23 nM.
As for `COc1cc(C(=O)N2C[C@H](N)[C@@H]3CC[C@H]2C3)cc2nc(-c3cc4ccc5nc4n3CCCCCCC(C)(C)C(=O)N[C@@H]5C)c(C)n12` [Example 928, (11~{R})-17-[7-[(1~{S},4~{R}, 5~{R})-4-amino-2-azabicyclo [3.2.1]octane-2-carbonyl]-5-methoxy-3-methyl-imidazo [1,2-a]pyridin-2-yl]-8,8,11-trimethyl-1,10,19-triazatricyclo [10.5.2.0^{15,18}]nonadeca-12(19),13,15(18), 16-tetraen-9-one], the IC50 is 51 nM.
Then `COc1cc(C(=O)N2CC[C@@H](OCC34CC(F)(C3)C4)[C@@H](N)C2)cc2nc(-c3cc4ccc5nc4n3CCCCC[C@@H]3C[C@H]3C(=O)N[C@@H]5C)n(C)c12` [Example 494], with 136 nM.
As for `COc1cc(C(=O)N2C[C@H]3CC[C@@H]2[C@@H]3N)cc2nc(-c3cc4ccc5cc4n3CCCCCCC(C)(C)C(=O)N[C@@H]5C)n(C)c12` [Example 749, (11~{R})-17-[5-[(1~{R},4~ {R},7~{R})-7-amino-2-azabicyclo[2.2.1]heptane-2-carbonyl]-7-methoxy-1-methyl-benzimidazol-2-yl]-8,8,11-trimethyl-1,10-diazatricyclo[10.5.2.0^{15,18}] nonadeca-12(19), 13,15(18),16-tetraen-9-one], the half-maximal inhibitory concentration (IC50) amounted to 17 nM.
In the case of `COc1cc(C(=O)N2C[C@H]3C[C@H]3[C@H](N)C2)cc2nc(-c3cc4ccc5nc4n3CCCCCCC(C)(C)C(=O)N[C@@H]5C)n(C)c12` [Example 543, (11~{R})-17-[5-[(1~ {S},5~{S},6~{R})-5-amino-3-azabicyclo [4.1.0]heptane-3-carbonyl]-7-methoxy-1-methyl-benzimidazol-2-yl]-8,8,11-trimethyl-1,10,19-triazatricyclo [10.5.2.0^{15,18}]nonadeca-12(19),13,15(18), 16-tetraen-9-one], the IC50 turned out to be 405 nM.
Then `COc1cc(C(=O)N2CC[C@@H](OC(F)(F)F)[C@@H](N)C2)cc2nc(-c3cc4ccc5nc4n3CCCCC[C@@H]3C[C@H]3C(=O)N[C@@H]5C)n(C)c12` [Example 582, (2~{R},5~{R},7~{R})-14-[5-[(3~{S},4~{R})-3-amino-4-(trifluoromethoxy)piperidine-1-carbonyl]-7-methoxy-1-methyl-benzimidazol-2-yl]-2-methyl-3,13,19-triazatetracyclo[11.5.2.0^ {5,7}.0^{16,20}]icosa-1(19), 14,16(20),17-tetraen-4-one], with 271 nM; and `COc1cc(C(=O)N2CC[C@@H](OC)[C@@H](N)C2)cc2nc(-c3cc4ccc5nc4n3CCCCCc3cc4ccccc4nc3C(=O)N[C@@H]5C)n(C)c12` [Example 731, (2~{R})-21-[5-[(3~{S},4~{R})-3-amino-4-methoxy-piperidine-1-carbonyl]-7-methoxy-1-methyl-benzimidazol-2-yl]-2-methyl-3,6,20,26-tetrazapentacyclo[18.5.2.0^ {5,14}.0^{7,12}.0^{23,27}] heptacosa-1(26),5(14), 6,8,10,12,21,23(27),24-nonaen-4-one], with 140 nM; and `COc1cc(C(=O)N2CC[C@@H](OC)[C@@H](N)C2)cc2nc(-c3cc4ccc5nc4n3CC(F)(F)CCC[C@@H]3C[C@H]3C(=O)N(C)[C@@H]5C)n(C)c12` [Example 692, (2~{R},5~{R},7~{R})-14-[5-[(3~{S},4~{R})-3-amino-4-methoxy-piperidine-1-carbonyl]-7-methoxy-1-methyl-benzimidazol-2-yl]-11,11-difluoro-2,3-dimethyl-3,13,19-triazatetracyclo[11.5.2.0^ {5,7}.0^{16,20}]icosa-1(19),14,16(20),17-tetraen-4-one], with 27 nM.
Then `COc1cc(C(=O)N[C@H]2CNCC[C@@H]2F)cc2nc(-c3cc4ccc5nc4n3CC(F)(F)CCCCC(C)(C)C(=O)N[C@@H]5C)n(C)c12` [Example 594, 2-[(11~{R})-3,3-difluoro-8,8,11-trimethyl-9-oxo-1,10,19-triazatricyclo [10.5.2.0^{15,18}]nonadeca-12,14,16,18-tetraen-17-yl]-~ {N}-[(3~{S},4~{S})-4-fluoro-3-piperidyl]-7-methoxy-1-methyl-benzimidazole-5-carboxamide], with 112 nM; and `COc1cc(C(=O)N2[C@H]3CC[C@@H]2[C@H](N)C3)cc2nc(-c3cc4ccc5nc4n3C[C@H]3C[C@@H]3CCCCC(=O)N[C@@H]5C)n(C)c12` [Example 226, (3~{S},5~{S},12~{R})-18-[5-[(1~{R},2~{R},4~{S})-2-amino-7-azabicyclo[2.2.1]heptane-7-carbonyl]-7-methoxy-1-methyl-benzimidazol-2-yl]-12-methyl-1,11,20-triazatetracyclo[11.5.2.0^{3,5}.0^{16,19}] icosa-13(20),14,16(19),17-tetraen-10-one], with 24 nM.

What is called IC50 is the midpoint of a concentration-inhibition curve.
